This is an account of results in patent US8071633B2, “Pharmaceutical composition for treating spinocerebellar ataxia” (Shionogi & Co., Ltd., priority 2004, dated 2011).

Each structure is given as a SMILES string. A value given as a limit tells only on which side of the number the result lay.

Test [1] deals with cerebellum-injured rat by administration of Ara-C. Briefly: Experiment 2: effect of improving ataxia on cerebellum-injured rat by administration of Ara-C (fall index, open-field method). The test is classed as in vivo, Sprauge-Dawley rats. As to conditions: for effect on improvement of ataxia (fall index): oral once a day for seven days, 24 hours after final administration, FIG. 2; for dosage ratio giving the same level efficacy versus Compound (I-1): oral, repeated administration. The procedure: Experiment 2 Effect of improving ataxia on cerebellum-injured rat by administration of Ara-C
Ara-C (60 mg/kg, Nippon Shinyaku) was subcutaneously administered to Sprauge-Dawley rats (CLEA Japan, Inc) of 2 days old and 3 days old, and the effects of improving ataxia on Compound (I-1), Control Compound 1 and Control Compound 2 at 4 weeks old were investigated.
The effect of improving on ataxia was evaluated with a fall index by an open-field method. Rats were left in the center of an open-filed (circle open-filed, 75 cm in a diameter, 25 divisions), number of divisions passed and numbers of falls for 3 minutes were counted, and a fall index (numbers of falls/number of divisions passed) was calculated.
Each of the compounds was dissolved in a physiological saline on the day of administration. Each compound was orally administered to rats using a sonde for oral administration at the following dosage; Compound (I-1): 0.1 mg/kg, 0.3 mg/kg, 1 mg/kg and 3 mg/kg, Control Compound 1: 30 mg/kg and 100 mg/kg, Control Compound 2: 100 mg/kg and 300 mg/kg. Physiological saline alone was administered to rats as a control group. The compounds were repetitively orally administered one a day for seven days and the effect was investigated 24 hours after the final administration. Volume for oral administration was 0.1 mL per 100 g body weight of a rat. Sample numbers were 5 or more in every group.

Test [2] concerns Rolling Mouse Nagoya. Briefly: Experiment 1: effect of improving ataxia on Rolling Mouse Nagoya (fall index, open-field method). It counts as in vivo. As to conditions: for effect on improvement of ataxia (fall index): 1 hour after administration, FIG. 1. From the text:
Experiment 1 Effect of improving ataxia on Rolling Mouse Nagoya
Rolling Mouse Nagoya, a hereditary ataxia mouse, is known as a model mouse for spinocerebellar ataxia and has been reported in many papers (E. Kurihara, N. Fukuda, S. Narumi, T. Matsuo, S. Saji, and Y. Nagawa, Jpn. Pharmacol., Ther., 13, 49-56 (1985), Y. Mano, K. Matsui, E. Toyoshima, and K. Ando, Acta. Neurol. Scand., 73, 352-358 (1986), K. Kinoshita, T. Fujitsuka, M. Yamamura, and Y. Matsuoka, Eur. J. Pharmacol., 274, 65-72 (1995), K. Kinoshita, T. Fukushima, Y, Kodama, J. Sugihara, M. Yamamura, and Y. Matsuoka, Biol. Pharm. Bull., 20, 36-39 (1997)).
Effect of Compound (I-1) for ataxia of Rolling Mouse Nagoya was investigated. The following compounds in Patent Literature 1 and Non-Patent Literature 1 were used as Control Compounds 1 and 2.
An effect on improvement of ataxia was evaluated with a fall index by an open-field method. Mice were left in the center of an open-field (circle open-field, 75 cm in a diameter, 25 divisions). Number of divisions passed and numbers of falls for 5 minutes were counted, and a fall index (numbers of falls/number of divisions passed) was calculated.
Each of the compounds was dissolved in a physiological saline on the day of the experiment. Each compound was orally administered to mice using a sonde for oral administration at the following dosage; Compound (I-1): 1 mg/kg and 3 mg/kg, Control Compound 1: 30 mg/kg and 100 mg/kg, Control Compound 2: 100 mg/kg and 300 mg/kg. Physiological saline alone was administered to mice as a control group. Volume for oral administration was 0.2 mL per 20 g body weight of a mouse.
Effect on improvement of ataxia for each mouse was evaluated 1 hour after administration by the open-field method. Sample numbers were 5 or more in every group.

For test [3], the system named is Rolling Mouse Nagoya. Nature of the test: Experiment 3: effect of improving ataxia on Rolling Mouse Nagoya (fall index, square open-field). The test is classed as in vivo. As to conditions: oral 100 mg/kg, 1 hour after administration, FIG. 3. How it is done: Experiment 3 Effect of improving ataxia on Rolling Mouse Nagoya
Effects of the compounds described in Patent Literature 8 (I-3: R=CN, I-1: R=CONH2) and Control Compound 2 on ataxia on Rolling Mouse Nagoya were investigated.
The effect on ataxia was evaluated with a fall index by an open-field method. Mice were left in the center of an open-field (square open-field, 100 cm×100 cm, divided into 25 squares of 20 cm×20 cm), number of squares passed and numbers of falls for 10 minutes were counted, and a fall index (numbers of falls/number of squares passed) was calculated.
Each of the compounds was dissolved in a physiological saline on the day of the experiment. Each compound was orally administered to mice using a sonde for oral administration at the following dosage; Compounds (I-3) and (I-4): 10 mg/kg, Control Compound 2: 100 mg/kg. Volume for oral administration was 0.2 mL per 20 g body weight of a mouse.
Each of the test compound was orally administered just after a fall index of each mouse in the open-field was calculated. A fall index was calculated again 1 hour after administration and the effect of improving ataxia was evaluated. Sample numbers were 5 or more in every group.

Where [4] appears, read: oral, comparison of effective doses.

In the case of `C[C@@H]1OC(=O)N[C@@H]1C(=O)N[C@@H](Cc1cscn1)C(=O)N1CCC[C@H]1C.O.O.O` [Compound (I-1)], the “effect on improvement of ataxia (fall index)” value (“effect … (fall index)” below) in test [1] (0.3 mg/kg or more) is reported as “superior effect on improvement of ataxia to Control Compounds”. The “effect … (fall index)” value in test [2] (oral 3 mg/kg) is listed as “superior effect on improvement of ataxia”. Besides, in test [2] (setting [4]), the “effect of improving ataxia relative to Control Compound 1” value is given as at least 30 times and the “effect of improving ataxia relative to Control Compound 2” value is recorded as at least 100 times.

For `CN1C(=O)C[C@H](C(=O)N[C@H](Cc2c[nH]cn2)C(=O)N2CCC[C@@H]2C(N)=O)NC1=O` [Control Compound 1], the “effect … (fall index)” value in test [1] (only at 100 mg/kg (30 and 100 mg/kg tested)) is given as “superior effect on improvement of ataxia in comparison of a control group”; in test [2] (oral, only at 100 mg/kg (30 and 100 mg/kg tested)) it was “superior effect of improving ataxia to that in a control group”. Also, the “dosage ratio giving the same level efficacy versus Compound (I-1)” value in test [1] was 1/300.

On to `NC(=O)[C@H]1CCCN1C(=O)[C@@H](Cc1c[nH]cn1)NC(=O)[C@@H]1CCC(=O)N1` [Control Compound 2], for which the “effect of improving ataxia (fall index before vs after administration)” value in test [3] is on record as “weak improvement effect”. The “effect … (fall index)” value is listed as “does not show the improvement effect” in test [1] (even at 300 mg/kg); “does not show the improvement effect” in test [2] (oral, even at 300 mg/kg (100 and 300 mg/kg tested)). The “dosage ratio giving the same level efficacy versus Compound (I-1)” value in test [1] is given as 1/1000.
